Experimental data as given in patent US20240062782A1, “NONLINEAR LIGHT ABSORPTION MATERIAL, RECORDING MEDIUM, METHOD FOR RECORDING INFORMATION, AND METHOD FOR READING INFORMATION” (Panasonic Intellectual Property Management Co., Ltd., priority 2021, published 2024).
Read-outs that look alike come from different tables or passages of the source.

Key:
Type in all cases: physicochemical
[1] = Measurement of two-photon absorption cross-section by the Z-scan method, light of 405 nm; details: light of wavelength 405 nm; for Two-photon absorption cross-section σ: titanium sapphire pulsed laser second harmonic, 80 fs, 1 kHz
Description: The two-photon absorption cross-section of the compound A for light having a wavelength of 405 nm may be higher than 1 GM or 10 GM or more. The upper limit of the two-photon absorption cross-section of the compound A is not particularly limited and is, for example, 1000 GM. The two-photon absorption cross-section can be measured by, for example, the Z-scan method described in J. Opt. Soc. Am. B, 2003, Vol. 20, p. 529. The Z-scan method is broadly used as a method for measuring a nonlinear optical constant. In the Z-scan method, a measurement sample is moved along the irradiation direction of a laser beam near the focal point where the beam is focused. On this occasion, the change in the amount of light permeated through the measurement sample is recorded. In the Z-scan method, the power density of incident light changes depending on the position of the measurement sample. Accordingly, when the measurement sample performs nonlinear light absorption, if the measurement sample is located near the focal point of the laser beam, the amount of the transmitted light is attenuated. The two-photon absorption cross-section can be calculated by fitting the change of the amount of transmitted light to a theoretical curve predicted by the intensity of incident light, the thickness of the measurement sample, the concentration of the compound A in the measurement sample, and so on.
The compounds of Examples and Comparative Examples were measured for the two-photon absorption cross-section for light having a wavelength of 405 nm. The measurement of the two-photon absorption cross-section was performed using the Z-scan method described in J. Opt. Soc. Am. B, 2003, Vol. 20, p. 529. As the light source for measuring the two-photon absorption cross-section, a titanium sapphire pulsed laser was used. Specifically, each sample was irradiated with the second harmonic of the titanium sapphire pulsed laser. The pulse width of the laser was 80 fs. The repetition frequency of the laser was 1 kHz. The average power of the laser was changed within a range of 0.01 mW or more and 0.08 mW or less. The light from the laser was light having a wavelength of 405 nm. […] As described above, the two-photon absorption cross-sections of the compounds of Examples 1 and 2 and the compounds of Comparative Examples 1 and 4 to 6 were measured.

[2] = Measurement of molar absorption coefficient at 405 nm (JIS K0115:2004); details: wavelength 405 nm; compound concentration 100 to 500 mmol/L in solvent
Description: The molar absorption coefficient of the compound A for light having a wavelength of 405 nm may be 100 mol^−1·L·cm^−1 or less, 10 mol^−1·L·cm^−1 or less, 1 mol^−1·L·cm^−1 or less, or 0.1 mol^−1·L·cm^−1 or less. The lower limit of the molar absorption coefficient of the compound A is not particularly limited and is, for example, 0.00001 mol^−1·L·cm^−1. The molar absorption coefficient can be measured by, for example, a method in accordance with the provision of Japanese Industrial Standards (JIS) K0115:2004. The measurement of molar absorption coefficient uses a light source that irradiates light with a photon density to hardly cause two-photon absorption by the compound A. Furthermore, in the measurement of molar absorption coefficient, the concentration of the compound A is adjusted to 100 mmol/L or more and 500 mmol/L or less. This concentration is very high compared to the concentration in a measurement test of the molar absorption coefficient of a light absorption peak. The molar absorption coefficient can be used as an index of one-photon absorption.
The compounds of Examples and Comparative Examples were measured for the molar absorption coefficient by a method in accordance with the provision of JIS K0115:2004. Specifically, first, as a measurement sample, a solution in which a compound was dissolved in a solvent was prepared. The concentration of the compound in the solution was appropriately adjusted within a range of 100 mmol/L or more and 500 mmol/L or less according to the absorbance at a wavelength of 405 nm of the compound as the target for measurement. Then, the absorption spectrum of the measurement sample was measured. The absorbance at a wavelength of 405 nm was read from the obtained spectrum. The molar absorption coefficient was calculated based on the concentration of the compound in the measurement sample and the optical path length of the cell used for the measurement. As described above, the molar absorption coefficients of the compounds of Examples 1 and 2 and the compounds of Comparative Examples 1 and 4 to 6 were measured.

[3] = Measurement of fluorescence internal quantum yield (absolute PL quantum yield measuring apparatus); details: for Fluorescence quantum yield Φf: in chloroform or tetrahydrofuran, excitation at one-photon absorption peak, measured 350-650 nm; for Fluorescence property: stated in words
Description: The compound A also tends to emit fluorescent light. The wavelength of fluorescent light emitted by the compound A may be 405 nm or more and 660 nm or less and, in some cases, may be 300 nm or more and 650 nm or less. The quantum yield Φf of fluorescence in the compound A may be 0.05 or more, 0.1 or more, or 0.5 or more. The upper limit of the quantum yield Φf of fluorescence of the compound A is not particularly limited and is, for example, 0.99. In the present specification, the “quantum yield” specifically means internal quantum yield. The quantum yield of fluorescence can be measured by, for example, a commercially available absolute PL quantum yield measuring apparatus.
The compounds of Examples and Comparative Examples were measured for fluorescence internal quantum yield. The measurement sample was prepared by dissolving a compound in a chloroform (CLF) solvent or a tetrahydrofuran (THF) solvent. In the measurement, an absolute PL quantum yield measuring apparatus (C9920-02, manufactured by Hamamatsu Photonics K.K.) was used. The excitation wavelength was set to the peak wavelength of the one-photon absorption of the compound. The measurement wavelength was appropriately adjusted within a range of 350 nm or more and 650 nm or less so as not to overlap with the absorption wavelength band of the compound. As a reference, the solvent used for dissolving the compound was used. As described above, the fluorescence quantum yields of the compounds of Examples 1 and 2 and the compounds of Comparative Examples 1 and 4 to 6 were measured.

Solubility in chloroform = details: chloroform as solvent
Description: Unsubstituted truxene is a hydrocarbon compound that is nonpolar and has a high planarity. Unsubstituted truxene corresponds to the compound of the above formula (1) in which R^1 to R^6 are hydrogen atoms. In the present specification, the unsubstituted truxene may be simply called truxene. In truxene, […] stacking of the molecules is likely to occur, and the solubility in a solvent or resin monomer tends to be low. For example, when chloroform is used as the solvent, the solubility of truxene is about several mmol/L. When the concentration of truxene in a material is high, truxene molecules come close to each other and are assembled in various forms. Consequently, multiple new levels are formed at positions with energies lower than the lowest one-photon-allowed state of truxene itself. Accordingly, tailing of a peak derived from one-photon absorption can be verified by measuring the one-photon absorption spectrum of the material including truxene at a high concentration. In contrast, in the compound A represented by the formula (1) in which R^1 to R^6 are hydrocarbon groups, it tends to suppress the formation of assembly of compound molecules without substantially changing the size of the π C electron conjugated system of truxene. […]

[4] = Solubility in the solvent when preparing samples for optical characteristics; details: measurement solvent; sample could not be prepared
Description: (§1) The compounds of Examples and Comparative Examples were measured for optical characteristics by the following methods. […] Measurement of two-photon absorption cross-section

[5] = Stability for light having a wavelength in a short wavelength region; details: short wavelength region (390-420 nm); optical characteristics could not be measured
Description: as §1

Row | Compound | Molar absorption coefficient ε [2] [L/mol/cm] | Fluorescence quantum yield Φf [3] | Two-photon absorption cross-section σ [1] [GM] | further results
1 | c1ccc2c(c1)Cc1c-2c2c(c3c1-c1ccccc1C3)-c1ccccc1C2 [Comparative Example 1, 10,15-dihydro-5H-diindeno[1,2-a:1′,2′-c]fluorene] | 24 | 0.1 | – | Ratio σ/ε ([1]; σ in GM over ε in mol^−1·L·cm^−1): 8; solubility (Solubility in chloroform): about several
2 | O=c1c2ccccc2c2c1c1c3ccccc3c(=O)c1c1c3ccccc3c(=O)c21 [Comparative Example 2, 5H-diindeno[1,2-a:1′,2′-c]fluorene-5,10,15-trione] | – | – | – | Solubility in the solvent (sample for measuring optical characteristics) [4]: low solubility
3 | c1ccc2c(c1)[nH]c1c2c2[nH]c3ccccc3c2c2[nH]c3ccccc3c12 [Comparative Example 3, 10,15-dihydro-5H-5,10,15-triaza-diindeno[1,2-a:1′,2′-c]fluorene] | – | – | – | Stability for light having a wavelength in a short wavelength region [5]: low stability
4 | C(#Cc1c(C#Cc2ccccc2)c(C#Cc2ccccc2)c(C#Cc2ccccc2)c(C#Cc2ccccc2)c1C#Cc1ccccc1)c1ccccc1 [Comparative Example 4, Hexakis(phenylethynyl)benzene] | 2730 | – | 23000 | –

Further lines, with some results ahead:

Row | Molar absorption coefficient ε [2] [L/mol/cm] | Fluorescence quantum yield Φf [3] | Two-photon absorption cross-section σ [1] [GM] | Compound | further results
5 | 35 | 0 | 570 | COc1cc(-c2ccc(-c3ccc(C(=O)c4ccc(OCCOCCOC(C)=O)c(OCCOCCOC(C)=O)c4)cc3)c(OC)c2)ccc1-c1ccc(C(=O)c2ccc(OCCOCCOC(C)=O)c(OCCOCCOC(C)=O)c2)cc1 [Comparative Example 5] | –
6 | 70 | 0.3 | 380 | OC(C#Cc1ccc(N(c2ccc(C#CC(O)(c3ccccc3)c3ccccc3)cc2)c2ccc(C#CC(O)(c3ccccc3)c3ccccc3)cc2)cc1)(c1ccccc1)c1ccccc1 [Comparative Example 6] | –
7 | 0.04 | 0.1 | 40 | CC1(C)c2ccccc2-c2c1c1c(c3c2C(C)(C)c2ccccc2-3)C(C)(C)c2ccccc2-1 [Example 1, 10,15-dihydro-5,5,10,10,15,15-hexamethyl-5H-diindeno[1,2-a:1′,2′-c]fluorene] | Fluorescence property [3]: had a fluorescence property; solubility (Solubility in chloroform; organic solvent or mixture, read-out: Solubility): ≥ 100 mM
8 | 0.08 | 0.1 | 43 | CCC1(CC)c2ccccc2-c2c1c1c(c3c2C(CC)(CC)c2ccccc2-3)C(CC)(CC)c2ccccc2-1 [Example 2, 10,15-dihydro-5,5,10,10,15,15-hexaethyl-5H-diindeno[1,2-a:1′,2′-c]fluorene] | Fluorescence property [3]: had a fluorescence property
